Measured values as given in patent US8569295B2, “Bicyclic urea compounds” (Merck Patent GmbH, priority 2009, dated 2013).

What follows are molecules tested against T1, RON kinase (Homo sapiens, UniProt Q04912) (assay: RON kinase biochemical mobility shift assay (Caliper Desktop Profiler)). Details: RON kinase inhibition.
T1 construct: purchased Caliper Life Sciences
Method: (§1) The Aurora assays described here are performed on two Caliper Life Sciences systems: the LC3000 and the Desktop Profiler. The RON kinase assays are performed on the Desktop Profiler only. These provide data on enzyme activity via measurement of the relative amounts of phosphorylated or unphosphorylated fluorescently labelled substrate peptide at the end of an enzymatic reaction. These different states of peptide are resolved by applying a potential difference across the sample. The presence of the charged phosphate group on the product (as opposed to the substrate) causes a different peptide mobility between the two peptides. This is visualized by excitation of the fluorescent label on the substrate and product peptides and represented as peaks within the analysis software.
(§2) The Desktop Profiler utilizes the same priniciple as the LC3000 for calculating percentage conversion of a substrate to product. Caliper Life Sciences provides proprietary flash frozen pre-made 384 well plates containing selected kinases. Each column in the 384 well plate contains a particular selected kinase. A second plate, the ‘substrate plate’ contains a mix of fluorescently labeled peptide substrate and ATP. These are arranged in columns so that transfer for substrate plate to enzyme plate provides the correct enzyme with the correct substrate/ATP concentration. Compounds are added to a thawed enzyme plate in the desired format, in single concentrations. Reactions are initiated by transfer of the substrate/ATP mix from the substrate plate. The enzyme plate is incubated for 90 minutes at 25 C. The reaction is stopped by addition of 70 ul of Stop Buffer (100 mM HEPES pH 7.5, 0.015% Brij-35, 10 mM EDTA (Sigma, E7889)).
(§3) Reading of the plate in the Profiler is identical to the LC3000, and the ratio between substrate and product peaks provides the activity of the enzyme in that well. This is best represented by a plate heat map which colors each well by percent inhibition as compared to positive and negative controls (no inhibitors and no ATP respectively).

T1 sequence (Q04912 25-1400): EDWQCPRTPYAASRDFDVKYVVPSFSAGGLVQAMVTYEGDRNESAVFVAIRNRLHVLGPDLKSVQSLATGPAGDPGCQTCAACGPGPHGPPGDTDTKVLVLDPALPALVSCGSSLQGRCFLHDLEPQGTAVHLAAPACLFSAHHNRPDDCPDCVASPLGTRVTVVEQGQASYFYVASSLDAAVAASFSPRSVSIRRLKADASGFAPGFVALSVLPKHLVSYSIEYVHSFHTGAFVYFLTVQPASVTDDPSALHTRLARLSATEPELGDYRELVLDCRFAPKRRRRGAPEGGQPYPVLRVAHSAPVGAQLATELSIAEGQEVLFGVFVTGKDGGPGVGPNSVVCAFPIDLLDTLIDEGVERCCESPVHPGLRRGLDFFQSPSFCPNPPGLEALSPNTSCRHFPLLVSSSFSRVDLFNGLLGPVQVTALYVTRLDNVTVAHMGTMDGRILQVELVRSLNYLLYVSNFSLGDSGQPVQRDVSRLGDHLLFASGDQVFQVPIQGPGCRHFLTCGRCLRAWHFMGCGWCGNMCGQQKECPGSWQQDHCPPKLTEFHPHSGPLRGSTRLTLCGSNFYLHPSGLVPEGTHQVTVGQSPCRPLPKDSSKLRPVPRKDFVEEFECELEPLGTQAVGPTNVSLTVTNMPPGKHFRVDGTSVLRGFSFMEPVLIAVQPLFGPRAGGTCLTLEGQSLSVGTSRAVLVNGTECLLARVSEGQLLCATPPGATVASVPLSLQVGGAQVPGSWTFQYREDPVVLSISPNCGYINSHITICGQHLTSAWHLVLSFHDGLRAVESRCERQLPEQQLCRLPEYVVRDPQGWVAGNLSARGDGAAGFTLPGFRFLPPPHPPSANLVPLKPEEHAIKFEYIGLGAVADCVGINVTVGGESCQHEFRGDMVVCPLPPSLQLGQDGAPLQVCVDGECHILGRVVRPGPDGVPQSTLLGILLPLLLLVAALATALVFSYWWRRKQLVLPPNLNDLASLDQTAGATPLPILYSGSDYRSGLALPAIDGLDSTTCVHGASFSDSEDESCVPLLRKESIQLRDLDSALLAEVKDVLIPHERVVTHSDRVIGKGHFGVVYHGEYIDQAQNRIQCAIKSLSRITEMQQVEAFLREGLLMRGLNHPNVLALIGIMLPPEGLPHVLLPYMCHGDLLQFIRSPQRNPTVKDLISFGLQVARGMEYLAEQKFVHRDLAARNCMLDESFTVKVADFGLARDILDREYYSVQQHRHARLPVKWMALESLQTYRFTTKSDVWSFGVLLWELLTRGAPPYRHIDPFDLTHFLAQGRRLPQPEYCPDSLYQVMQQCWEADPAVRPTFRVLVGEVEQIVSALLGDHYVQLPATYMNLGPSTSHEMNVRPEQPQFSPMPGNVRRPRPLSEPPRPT

Row | SMILES | IC50
1 | O=C1NCc2c(Oc3ccc(NC(=O)c4cccc(C(F)(F)F)c4F)cc3F)ccnc2N1 [Example 94, 2-fluoro-N-{3-fluoro-4-[(2-oxo-1,2,3,4-tetrahydropyrido[2,3-d]pyrimidin-5-yl)oxy]phenyl}-3-(trifluoromethyl)benzamide] | 0.01 to 0.1 µM
2 | Cc1c(C(=O)Nc2ccc(Oc3ccnc4c3CNC(=O)N4)c(F)c2)c(=O)n(-c2ccccc2)n1CC(C)(C)O [Example 74, N-{3-fluoro-4-[(2-oxo-1,2,3,4-tetrahydropyrido[2,3-d]pyrimidin-5-yl)oxy]phenyl}-1-(2-hydroxy-2-methylpropyl)-5-methyl-3-oxo-2-phenyl-2,3-dihydro-1H-pyrazole-4-carboxamide] | 0.1 to 1 µM
3 | Cc1cccc(C(=O)Nc2ccc(Oc3ccnc4c3CNC(=O)N4)c(F)c2)c1 [Example 97, N-{3-fluoro-4-[(2-oxo-1,2,3,4-tetrahydropyrido[2,3-d]pyrimidin-5-yl)oxy]phenyl}-3-methylbenzamide] | 0.01 to 0.1 µM

These molecules were tested against T2, GST-Aurora A (Homo sapiens, UniProt O14965) (assay: Aurora A kinase biochemical mobility shift assay (Caliper LC3000 / Desktop Profiler)). Details: AK A (Aurora kinase A) inhibition.
T2 construct: N-terminal GST fusion with full length Aurora A (1-403 amino acids); purchased Carna Biosciences 05-101
T2 sequence (O14965 1-403): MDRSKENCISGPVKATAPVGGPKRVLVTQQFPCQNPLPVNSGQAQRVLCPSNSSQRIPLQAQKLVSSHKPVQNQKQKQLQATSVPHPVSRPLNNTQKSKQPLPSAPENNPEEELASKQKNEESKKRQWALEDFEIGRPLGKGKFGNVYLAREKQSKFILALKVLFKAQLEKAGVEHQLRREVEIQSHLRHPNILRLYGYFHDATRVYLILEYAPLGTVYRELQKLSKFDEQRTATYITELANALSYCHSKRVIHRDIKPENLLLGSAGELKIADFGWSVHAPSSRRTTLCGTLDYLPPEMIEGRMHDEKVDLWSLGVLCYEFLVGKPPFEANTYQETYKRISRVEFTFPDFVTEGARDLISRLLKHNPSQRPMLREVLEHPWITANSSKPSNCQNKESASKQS
Method: as §1
In order to measure inhibitor activity of Aurora A inhibitors in the Caliper Life Sciences LC3000, a TTP Mosquito liquid handling instrument is used to place 0.25 ul of the appropriate concentration of inhibitor in 100% DMSO (for a dose response curve calculation) into each well of a 384-well plate. To this reaction components are added to a final volume of 25 ul: • 0.067 ng/ul GST-Aurora A (Carna Biosciences 05-101. N-terminal GST fusion with full length Aurora A (1-403 amino acids), accession number NP_940835.1). • 15 uM ATP (Fluka, 02055) • 1 mM DTT (Sigma, D0632) • 1 mM MgCl2 (Sigma, M1028) • 1 uM substrate peptide (sequence FITC-LRRASLG-(CONH2), synthesized by Tufts Peptide Synthesis service. • 100 mM HEPES pH 7.5 (Calbiochem, 391338) • 0.015% Brij-35 (Sigma, B4184)
The reaction is incubated for 90 min at 25 C, and then stopped by the addition of 70 ul of Stop buffer (100 mM HEPES pH 7.5, 0.015% Brij-35, 10 mM EDTA (Sigma, E7889)).
The plate is read on a Caliper LC3000 in an Off-Chip mobility shift assay format, using the following parameters for a 12-sipper chip: screening pressure −1.8 psi, upstream voltage −2700, downstream voltage −1000. These conditions cause unphosphorylated substrate and phosphorylated product peptide to resolve as separate peaks allowing direct measurement of percentage of conversion of substrate to product. The percent conversion can be plotted against concentration of inhibitor to produce a sigmoidal dose response curve, from which an IC50 can be calculated using XLFit for Microsoft Excel.
as §2, §3

Row | SMILES | IC50
4 | CCN1Cc2c(Nc3ccc(NC(=O)c4ccc(F)cc4C(F)(F)F)cc3)ccnc2NC1=O [Example 34, N-(4-(3-ethyl-2-oxo-1,2,3,4-tetrahydropyrido [2,3-d]pyrimidin-5-ylamino)phenyl)-4-fluoro-2-(trifluoromethyl) benzamide] | < 0.01 µM
5 | COc1ccc(CN2Cc3c(Nc4ccc(NC(=O)Nc5ccc(F)cc5C(F)(F)F)cc4)ccnc3NC2=O)cc1 [Example 119, N-[4-fluoro-2-(trifluoromethyl)phenyl]-N′-(4-{[3-(4-methoxybenzyl)-2-oxo-1,2,3,4-tetrahydropyrido[2,3-d]pyrimidin-5-yl]amino}phenyl)urea] | 0.1 to 1 µM
6 | CCN1Cc2c(Nc3ccc(NC(=O)c4ccc(F)cc4C(F)(F)F)cc3F)ccnc2NC1=O [Example 36, N-(4-(3-ethyl-2-oxo-1,2,3,4-tetrahydropyrido [2,3-d]pyrimidin-5-ylamino)-3-fluorophenyl)-4-fluoro-2-(trifluoromethyl) benzamide] | < 0.01 µM
7 | COc1ccc(CN2Cc3c(Nc4ccc(NC(=O)c5ccc(F)cc5C(F)(F)F)cc4F)ccnc3NC2=O)cc1 [Example 112, 4-fluoro-N-(3-fluoro-4-{[3-(4-methoxybenzyl)-2-oxo-1,2,3,4-tetrahydropyrido[2,3-d]pyrimidin-5-yl]amino}phenyl)-2-(trifluoromethyl)benzamide] | 0.01 to 0.1 µM
8 | O=C(Nc1ccc(Nc2ccnc3c2CN(C2CC2)C(=O)N3)cc1)c1ccccc1 [Example 14, N-(4-(3-cyclopropyl-2-oxo-1,2,3,4-tetrahydropyrido[2,3-d]pyrimidin-5-ylamino)phenyl) benzamide] | 0.1 to 1 µM
9 | COc1ccc(CN2Cc3c(Nc4ccc(NC(=O)Nc5ccc(F)c(F)c5)cc4)ccnc3NC2=O)cc1 [Example 120, N-(3,4-difluorophenyl)-N′-(4-{[3-(4-methoxybenzyl)-2-oxo-1,2,3,4-tetrahydropyrido[2,3-d]pyrimidin-5-yl]amino}phenyl)urea] | 0.1 to 1 µM
10 | O=C1NCc2c(Nc3ccc(NC(=O)c4ccc(F)cc4C(F)(F)F)cc3)ccnc2N1 [Example 6, 4-fluoro-N-(4-(2-oxo-1,2,3,4-tetrahydropyrido[2,3-d]pyrimidin-5-ylamino)phenyl)-2-(trifluoromethyl) benzamide] | < 0.01 µM
11 | O=C(Nc1ccc(Nc2ccnc3c2C2OCCN2C(=O)N3)cc1)c1ccc(F)cc1C(F)(F)F (centres unmarked) [Example 43, 4-fluoro-N-(4-(5-oxo-3,5,6,10b-tetrahydro-2H-oxazolo[3,2-c]pyrido [3,2-e]pyrimidin-10-ylamino)phenyl)-2-(trifluoromethyl) benzamide] | 0.1 to 1 µM

Other lines, results leading:

Row | IC50 | SMILES
12 | 0.01 to 0.1 µM | CCN1Cc2c(Nc3ccc(NC(=O)c4ccccc4)cc3)ccnc2NC1=O [Example 35, N-(4-(3-ethyl-2-oxo-1,2,3,4-tetrahydropyrido [2,3-d]pyrimidin-5-ylamino)phenyl) benzamide]
13 | 0.01 to 0.1 µM | CN1Cc2c(Nc3ccc(NC(=O)c4ccccc4F)cc3F)ccnc2NC1=O [Example 41, 2-fluoro-N-(3-fluoro-4-(3-methyl-2-oxo-1,2,3,4-tetrahydropyrido [2,3-d]pyrimidin-5-ylamino)phenyl) benzamide]
14 | 0.1 to 1 µM | COc1ccc(CN2Cc3c(Nc4ccc(NC(=O)c5cccc(F)c5)cc4F)ccnc3NC2=O)cc1 [Example 113, 3-fluoro-N-(3-fluoro-4-{[3-(4-methoxybenzyl)-2-oxo-1,2,3,4-tetrahydropyrido[2,3-d]pyrimidin-5-yl]amino}phenyl)benzamide]
15 | 0.01 to 0.1 µM | COc1cc(CNC(=O)c2ccc(-c3ccnc4c3CNC(=O)N4)s2)ccc1F [Example 130, N-(4-fluoro-3-methoxybenzyl)-5-(2-oxo-1,2,3,4-tetrahydropyrido[2,3-d]pyrimidin-5-yl)thiophene-2-carboxamide]
16 | 0.1 to 1 µM | CN1Cc2c(Nc3ccc(NC(=O)CC(F)(F)F)cc3)ccnc2NC1=O [Example 24, 3,3,3-trifluoro-N-(4-(3-methyl-2-oxo-1,2,3,4-tetrahydropyrido [2,3-d]pyrimidin-5-ylamino)phenyl) propanamide]
17 | < 0.01 µM | O=C(Nc1ccc(Nc2ccnc3c2CN(CCCO)C(=O)N3)cc1)c1ccc(F)cc1C(F)(F)F [Example 32, 4-fluoro-N-(4-(3-(3-hydroxypropyl)-2-oxo-1,2,3,4-tetrahydropyrido [2,3-d]pyrimidin-5-ylamino)phenyl)-2-(trifluoromethyl) benzamide]
18 | < 0.01 µM | CN1Cc2c(Nc3ccc(NC(=O)c4ccc(F)cc4C(F)(F)F)cc3)ccnc2NC1=O [Example 21, 4-fluoro-N-(4-(3-methyl-2-oxo-1,2,3,4-tetrahydropyrido [2,3-d]pyrimidin-5-ylamino)phenyl)-2-(trifluoromethyl) benzamide]
19 | 0.01 to 0.1 µM | O=C(Nc1ccc(Nc2ccnc3c2CN(c2ccccc2)C(=O)N3)c(F)c1)c1cccc(F)c1 [Example 26, 3-fluoro-N-(3-fluoro-4-(2-oxo-3-phenyl-1,2,3,4-tetrahydropyrido [2,3-d]pyrimidin-5-ylamino)phenyl) benzamide]
20 | 0.1 to 1 µM | COc1ccc(CN2Cc3c(Nc4ccc(NC(=O)CC(F)(F)F)cc4)ccnc3NC2=O)cc1 [Example 100, 3,3,3-trifluoro-N-(4-{[3-(4-methoxybenzyl)-2-oxo-1,2,3,4-tetrahydropyrido[2,3-d]pyrimidin-5-yl]amino}phenyl)propanamide]
21 | 0.1 to 1 µM | COc1ccc(CN2Cc3c(Nc4ccc(NC(=O)c5ccccc5)cc4)ccnc3NC2=O)cc1 [Example 2]
22 | 0.01 to 0.1 µM | O=C(Nc1ccc(Nc2ccnc3c2CN(c2ccccc2)C(=O)N3)cc1)c1ccc(F)cc1C(F)(F)F [Example 27, 4-fluoro-N-(4-(2-oxo-3-phenyl-1,2,3,4-tetrahydropyrido [2,3-d]pyrimidin-5-ylamino)phenyl)-2-(trifluoromethyl) benzamide]
23 | 0.01 to 0.1 µM | O=C(Nc1ccc(Nc2ccnc3c2CN(CC(F)(F)F)C(=O)N3)cc1)c1ccccc1 [Example 37, N-(4-(2-oxo-3-(2,2,2-trifluoroethyl)-1,2,3,4-tetrahydropyrido[2,3-d]pyrimidin-5-ylmino)phenyl)benzamide]
